{"source": "patent US20150190416A1", "about": "“FILAGGRIN PRODUCTION PROMOTER, THERAPEUTIC AGENT FOR DISEASES ASSOCIATED WITH REDUCTION IN PRODUCTION OF FILAGGRIN, AND METHOD FOR SCREENING FOR SAID THERAPEUTIC AGENT” (KYOTO UNIVERSITY, priority 2012, published 2015)", "key": {"GPR22": {"test_system": "GPR22", "assay": "Blocking effect by GPR22 RNAi in NHEK cells (Reference Example 1)", "type": "cell-based, human", "settings": "calcium priming, siRNA 10 nM, Compound 1 10 nM, 1 day", "description": "(§1) 1) 5×10^4 cells/well of NHEK cells (Invitrogen) were plated on a 24-well plate. Then, 500 μl of a culture medium containing a medium for proliferating normal human epidermal keratinocytes (HuMedia-KG2, KURABO INDUSTRIES LTD.) supplemented with hEGF (0.1 ng/ml), insulin (10 μg/ml), hydrocortisone (0.5 μg/ml), gentamycin (50 μg/ml), amphotericin B (50 ng/ml), and bovine brain pituitary extract (BPE) (0.4%, v/v) were added to the plate, and the cells were cultured under the conditions of 37° C. and 5% CO2.\n2) 1 day after the step 1), the medium was exchanged for the medium supplemented with calcium every day, and culture was conducted for 2 days (priming).\n3) The NHEK cells of the step 2) were transfected with 10 nM of siRNA per well of the 24-well plate by using a transfection reagent, Lipofectamine RNA Max (Invitrogen) according to the manufacturer's protocol.\n4) After culture for 1 day after the step 3), the medium was exchanged for a medium to which Compound 1 dissolved in DMSO was added at 10 nM per well on the 24-well plate, and culture was conducted for 1 day. As a control example, a solvent only (vehicle) was added.\n5) An extraction reagent (TRIzol™, Invitrogen) was used, and according to the manufacturer's protocol, total RNA was extracted from each of cells treated with the medicament. A reverse transcriptase reagent (Prime Script™, Takara) was used, and according to the manufacturer's protocol, cDNA was prepared from the total RNA. Real-time PCR was conducted by using SYBR™ Premix Ex Taq (Takara) with a CFX96 real-time PCR instrument according to the manufacturer's protocol, and the amounts of GPR22 mRNA and FLG mRNA were measured. The results of measurement are shown as a GAPDH ratio."}, "GPR22 mRNA": {"test_system": "GPR22 mRNA", "assay": "GPR22 mRNA expression in NHEK cells, real-time PCR (Example 4)", "type": "cell-based, human", "settings": "Compound 1 1 μM, 3 days", "description": "In this example, the expression-inducing effects of Compound 1 on GPR142 mRNA and GPR22 mRNA in NHEK cells were confirmed.\nas §1\n2) After culture under the conditions of the step 1) for 1 day, the medium was exchanged for the culture medium of the step 1) to which a DMSO solution of Compound 1 was added at 1 μM per well every day and the culture was conducted for 3 days. […]\n3) An extraction reagent (TRIzol™, Invitrogen) was used, and according to the manufacturer's protocol, total RNA was extracted from each of cells treated with the medicament. […] Next, real-time PCR was conducted by using the following primers and SYBR™ Premix Ex Taq (Takara) with a CFX96 real-time PCR instrument according to the manufacturer's protocol, and the amounts of GPR142mRNA and GPR22mRNA expression were measured. […]"}}}
{"smiles": "CCc1ccc(OCc2ccccc2C(=O)Nc2ccc3nc(C)cc(N)c3c2)cc1.Cl", "note": "[Compound 1, N-(4-Amino-2-methyl-6-quinolyl)-2-[(4-ethylphenoxy)methyl]benzamide hydrochloride]", "values": [{"measurement": "FLG mRNA expression in the presence of GPR22 siRNA", "setting": "GPR22", "value": "not suppressed"}, {"measurement": "GPR22 mRNA expression in the presence of GPR22 siRNA", "setting": "GPR22", "value": "suppressed by GPR22 siRNA"}, {"measurement": "GPR22 mRNA expression (GAPDH ratio)", "setting": "GPR22 mRNA", "value": "induced GPR22 mRNA expression"}]}
